Experimental data taken from PMC11590106, “Computational Model-Assisted Development of a Nonenzymatic Fluorescent Glucose-Sensing Assay” (ACS Sensors, 2024).

Tests used:
Concanavalin A (ConA) [1] = molecular target: T1, Concanavalin A (ConA) (Canavalia ensiformis, UniProt P02866); test: fluorescence anisotropy titration (association constant Ka); assay type: binding; parameters: ConA Type IV (Sigma), PEGylated (5 kDa mPEG); tetramer treated as one protein
Concanavalin A (ConA) [2] = molecular target: T1, Concanavalin A (ConA); test: competitive fluorescence anisotropy, displacement of Cy5.5-mannotetraose from PEG-ConA; assay type: binding; parameters: ConA Type IV (Sigma), PEGylated (5 kDa mPEG)

T1 sequence (P02866 164-281 limits assumed): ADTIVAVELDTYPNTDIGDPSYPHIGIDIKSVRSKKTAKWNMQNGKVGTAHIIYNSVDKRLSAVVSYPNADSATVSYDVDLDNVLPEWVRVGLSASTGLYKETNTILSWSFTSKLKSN
T1 sequence (P02866 30-148 limits assumed): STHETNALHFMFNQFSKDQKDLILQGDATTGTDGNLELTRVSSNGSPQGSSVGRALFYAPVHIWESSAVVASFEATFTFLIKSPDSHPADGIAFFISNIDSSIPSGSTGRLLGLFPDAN

## Cy5.5-mannotriose
Concanavalin A (ConA) [1]
  fluorescence anisotropy titration (association constant Ka): 5.33 × 10^6 M^–1

## OC[C@H]1OC(O)[C@H](O)[C@@H](O)[C@@H]1O (stereo partly drawn) [glucose]
Concanavalin A (ConA) [2]
  competitive fluorescence anisotropy, displacement of Cy5.5-mannotetraose from PE: a sensitive response of the assay was observed for various glucose concentrations within the physiological range

## Cy5.5-mannobiose
Concanavalin A (ConA) [1]
  fluorescence anisotropy titration (association constant Ka): 1.73 × 10^6 M^–1
